By MIC is commonly meant the least concentration at which growth counts as inhibited. Low values mean a more susceptible organism, high ones a less susceptible organism.

This is an account of results in ChEMBL document CHEMBL3045635, “Synthesis and in vitro antimicrobial evaluation of novel 2-amino-6-(phenylthio)-4-(2-(phenylthio)quinolin-3-yl)pyridine-3,5-dicarbonitriles” (2013).

Type in all cases: functional
Assay [1] concerns Vibrio cholerae. In words: Antibacterial activity against Vibrio cholerae MTCC 3906 after 24 hr by broth microdilution method. To be noted: MTCC 3906, 24 h. (In broth dilution the organism is exposed to a series of concentrations in liquid medium.)
The test system of assay [2] is Escherichia coli. In words: Antibacterial activity against Escherichia coli MTCC 443 after 24 hr by broth microdilution method. To be noted: MTCC 443, 24 h.
Assay [3] has as its system Clostridium tetani. In words: Antibacterial activity against Clostridium tetani MTCC 449 after 24 hr by broth microdilution method. To be noted: MTCC 449, 24 h.
Assay [4] deals with Streptococcus pneumoniae. In words: Antibacterial activity against Streptococcus pneumoniae MTCC 1936 after 24 hr by broth microdilution method. Particulars: MTCC 1936, 24 h.
For assay [5], the system named is Aspergillus fumigatus. In words: Antifungal activity against Aspergillus fumigatus MTCC 3008 after 48 hr by broth microdilution method. Particulars: MTCC 3008, 48 h.
Assay [6] has as its system Bacillus subtilis. In words: Antibacterial activity against Bacillus subtilis MTCC 441 after 24 hr by broth microdilution method. To be noted: MTCC 441, 24 h.
Assay [7] has as its system Candida albicans. In words: Antifungal activity against Candida albicans MTCC 227 after 48 hr by broth microdilution method. Particulars: MTCC 227, 48 h.
Assay [8] concerns Salmonella typhi. In words: Antibacterial activity against Salmonella enterica subsp. enterica serovar Typhi MTCC 98 after 24 hr by broth microdilution method. Particulars: MTCC 98, 24 h.

Converted amounts (≈) assume the structure as drawn.

Turning to `Cc1ccc(Sc2nc3ccccc3cc2-c2c(C#N)c(N)nc(Sc3ccccc3)c2C#N)cc1`, the MIC in assay [1] is 200 µg/mL (≈ 399 µM); in assay [2], 200 µg/mL (≈ 399 µM); in assay [3], 200 µg/mL (≈ 399 µM); in assay [4], 250 µg/mL (≈ 498 µM); in assay [5], over 1000 µg/mL; in assay [6] it was 250 µg/mL (≈ 498 µM). Also, the MIC worked out at 500 µg/mL (≈ 997 µM) in assay [7] and 125 µg/mL (≈ 249 µM) in assay [8].
Consider `Cc1ccc(Sc2nc(N)c(C#N)c(-c3cc4cc(C)ccc4nc3Sc3ccccc3)c2C#N)cc1`, for which the MIC in assay [1] came to 500 µg/mL (≈ 970 µM); in assay [2], 250 µg/mL (≈ 485 µM); in assay [3], 200 µg/mL (≈ 388 µM); in assay [4], 250 µg/mL (≈ 485 µM); in assay [5], 500 µg/mL (≈ 970 µM); in assay [6], 500 µg/mL (≈ 970 µM). The values for the MIC in assay [7] and in assay [8] were 1000 µg/mL (≈ 1940 µM) and 100 µg/mL (≈ 194 µM), respectively.
With `Cc1ccc(Sc2nc3ccc(C)cc3cc2-c2c(C#N)c(N)nc(Sc3ccc(C)cc3)c2C#N)cc1`, the MIC in assay [1] was determined as 250 µg/mL (≈ 472 µM); in assay [2] it was 200 µg/mL (≈ 378 µM); in assay [3], 250 µg/mL (≈ 472 µM); in assay [4], 200 µg/mL (≈ 378 µM); in assay [5], 1000 µg/mL (≈ 1890 µM); in assay [6] it was 100 µg/mL (≈ 189 µM). Further, the MIC is 250 µg/mL (≈ 472 µM) in assay [7] and 125 µg/mL (≈ 236 µM) in assay [8].
For the compound `Cc1ccc(Sc2nc(N)c(C#N)c(-c3cc4ccccc4nc3Sc3ccccc3)c2C#N)cc1`, the MIC in assay [1] came out at 250 µg/mL (≈ 498 µM); in assay [2], 100 µg/mL (≈ 199 µM); in assay [3], 250 µg/mL (≈ 498 µM); in assay [4] it was 250 µg/mL (≈ 498 µM); in assay [5], 250 µg/mL (≈ 498 µM); in assay [6], 200 µg/mL (≈ 399 µM). The MIC amounted to 1000 µg/mL (≈ 1990 µM) in assay [7] and 125 µg/mL (≈ 249 µM) in assay [8].
As for `Cc1ccc(Sc2nc3ccc(C)cc3cc2C=O)cc1`, the MIC amounted to 125 µg/mL (≈ 426 µM) in assay [1]; 250 µg/mL (≈ 852 µM) in assay [2]; 250 µg/mL (≈ 852 µM) in assay [3]; 250 µg/mL (≈ 852 µM) in assay [4]; 250 µg/mL (≈ 852 µM) in assay [5]; 250 µg/mL (≈ 852 µM) in assay [6]. Moreover, the MIC in assay [7] worked out at 500 µg/mL (≈ 1700 µM); in assay [8], 200 µg/mL (≈ 682 µM).
As for `Cc1ccc(Sc2nc(N)c(C#N)c(-c3cc4ccccc4nc3Sc3ccc(Cl)cc3)c2C#N)cc1`, the MIC was 200 µg/mL (≈ 373 µM) in assay [1]; 62.5 µg/mL (≈ 117 µM) in assay [2]; 250 µg/mL (≈ 466 µM) in assay [3]; 200 µg/mL (≈ 373 µM) in assay [4]; over 1000 µg/mL in assay [5]; 100 µg/mL (≈ 187 µM) in assay [6]. The MIC in assay [7] was 250 µg/mL (≈ 466 µM); in assay [8], 100 µg/mL (≈ 187 µM).
Consider `N#Cc1c(N)nc(Sc2ccccc2)c(C#N)c1-c1cc2ccccc2nc1Sc1ccccc1`, for which the MIC in assay [1] was determined as 200 µg/mL (≈ 410 µM); in assay [2], 250 µg/mL (≈ 513 µM); in assay [3] it was 500 µg/mL (≈ 1030 µM); in assay [4], 500 µg/mL (≈ 1030 µM); in assay [5], 500 µg/mL (≈ 1030 µM); in assay [6], 500 µg/mL (≈ 1030 µM). For the same compound, the MIC in assay [7] is 250 µg/mL (≈ 513 µM); in assay [8], 200 µg/mL (≈ 410 µM).
With `Cc1ccc2nc(Sc3ccccc3)c(C=O)cc2c1`, the MIC in assay [1] was 250 µg/mL (≈ 895 µM); in assay [2], 200 µg/mL (≈ 716 µM); in assay [3] it was 250 µg/mL (≈ 895 µM); in assay [4], 500 µg/mL (≈ 1790 µM); in assay [5] it was over 1000 µg/mL; in assay [6] it was 500 µg/mL (≈ 1790 µM). For the same compound, the MIC in assay [7] is over 1000 µg/mL; in assay [8], 200 µg/mL (≈ 716 µM).
With `Cc1ccc(Sc2nc3ccccc3cc2-c2c(C#N)c(N)nc(Sc3ccc(Cl)cc3)c2C#N)cc1`, the MIC is 200 µg/mL (≈ 373 µM) in assay [1]; 200 µg/mL (≈ 373 µM) in assay [2]; 100 µg/mL (≈ 187 µM) in assay [3]; 250 µg/mL (≈ 466 µM) in assay [4]; over 1000 µg/mL in assay [5]; 200 µg/mL (≈ 373 µM) in assay [6]. Moreover, the MIC was over 1000 µg/mL in assay [7] and 200 µg/mL (≈ 373 µM) in assay [8].
For the compound `COC1=CC(=O)C[C@@H](C)[C@]12Oc1c(Cl)c(OC)cc(OC)c1C2=O` [GRISEOFULVIN], the MIC in assay [5] came out at 100 µg/mL (≈ 283 µM); in assay [7], 500 µg/mL (≈ 1420 µM).
In the case of `Cc1ccc(Sc2nc3ccccc3cc2-c2c(C#N)c(N)nc(Sc3ccc(C)cc3)c2C#N)cc1`, the MIC came out at 200 µg/mL (≈ 388 µM) in assay [1]; 250 µg/mL (≈ 485 µM) in assay [2]; 250 µg/mL (≈ 485 µM) in assay [3]; 200 µg/mL (≈ 388 µM) in assay [4]; 1000 µg/mL (≈ 1940 µM) in assay [5]; 250 µg/mL (≈ 485 µM) in assay [6]. The figures for the MIC in assay [7] and in assay [8] were 1000 µg/mL (≈ 1940 µM) and 250 µg/mL (≈ 485 µM), respectively.
Regarding `Cc1ccc(Sc2nc3ccc(C)cc3cc2-c2c(C#N)c(N)nc(Sc3ccc(Cl)cc3)c2C#N)cc1`, the MIC in assay [1] is 200 µg/mL (≈ 364 µM); in assay [2], 100 µg/mL (≈ 182 µM); in assay [3], 100 µg/mL (≈ 182 µM); in assay [4], 250 µg/mL (≈ 454 µM); in assay [5], over 1000 µg/mL; in assay [6] it was 250 µg/mL (≈ 454 µM). Also, the MIC came to 1000 µg/mL (≈ 1820 µM) in assay [7] and 100 µg/mL (≈ 182 µM) in assay [8].
Take `Cc1ccc2nc(Sc3ccc(Cl)cc3)c(-c3c(C#N)c(N)nc(Sc4ccc(Cl)cc4)c3C#N)cc2c1`: the MIC in assay [1] is 200 µg/mL (≈ 351 µM); in assay [2], 50 µg/mL (≈ 87.6 µM); in assay [3], 500 µg/mL (≈ 876 µM); in assay [4], 500 µg/mL (≈ 876 µM); in assay [5], 500 µg/mL (≈ 876 µM); in assay [6], 500 µg/mL (≈ 876 µM). Moreover, the MIC in assay [7] came out at 500 µg/mL (≈ 876 µM); in assay [8] it was 100 µg/mL (≈ 175 µM).
